From patent US10993999B2, “Materials and methods for producing improved lentiviral vector particles” (IMMUNE DESIGN CORP., priority 2012, dated 2021)
Where two headings read alike, the source gives them in different places.

System: PBMC-derived human dendritic cells
Type: cell-based

Molecule: Cc1cn([C@H]2C[C@H](N=[N+]=[N-])[C@@H](CO)O2)c(=O)[nH]c1=O [AZT]
- effect of reverse-transcriptase inhibitor on transduction (integration-deficient VSV-G-pseudotyped particles, 200 ng p24): inhibited

Molecule: Cc1ccnc2c1NC(=O)c1cccnc1N2C1CC1 [Nevirapine]
- effect of reverse-transcriptase inhibitor on transduction (integration-competent VSV-G-pseudotyped particles, 20 ng p24): inhibited

B1: Vpx: SIVmac Vpx protein (SEQ ID NO: 44), SAMHD1 inhibitor packaged into the lentivirus particles (protein)
chain: MSDPRERIPPGNSGEETIGEAFEWLNRTVEEINREAVNHLPRELIFQVWQRSWEYWHDEQGMSQSYVKYRYLCLMQKALFMHCKKGCRCLGEGHGAGGWRPGPPPPPPPGLA
modifications: Simian immunodeficiency virus
- role of Vpx in transduction of human dendritic cells (integration-competent VSV-G-pseudotyped lentiviral vector particles): enhanced
- role of Vpx in transduction of human dendritic cells (integration-deficient VSV-G-pseudotyped lentiviral particles): required
